# Measurements from US9232796B2, “Herbicidal compositions comprising 4-amino-3-chloro-5-fluoro-6-(4-chloro-2-fluoro-3-methoxyphenyl) pyridine-2-carboxylic acid or a derivative thereof and acetyl-CoA carboxylase (ACCase) inhibitors” (DOW AGROSCIENCES LLC, priority 2012, dated 2016).
# How the values were obtained:
# [1] = test system: IPOHE; test: Example I postemergence foliar-applied, greenhouse, direct seeded rice weeds; type: in vivo, Ipomoea hederacea Jacq.
# Description: Seeds or nutlets of the desired test plant species were planted in a soil matrix prepared by mixing a loam or sandy loam soil (e.g., 28.6 percent silt, 18.8 percent clay, and 52.6 percent sand, with a pH of about 5.8 and an organic matter content of about 1.8 percent) and calcareous grit in an 80 to 20 ratio. The soil matrix was contained in plastic pots with a volume of 1 quart and a surface area of 83.6 square centimeters (cm^2). When required to ensure good germination and healthy plants, a fungicide treatment and/or other chemical or physical treatment was applied. The plants were grown for 8-22 days in a greenhouse with an approximate 14 hr. photoperiod which was maintained at about 29° C. during the day and 26° C. during the night. Nutrients (Peters Excel® 15-5-15 5-Ca 2-Mg and iron chelate) were applied in the irrigation solution as needed and water was added on a regular basis. Supplemental lighting was provided with overhead metal halide 1000-Watt lamps as necessary. The plants were employed for testing when they reached the first through fourth true leaf stage.
# Treatments consisted of the acid or esters of 4-amino-3-chloro-5-fluoro-6-(4-chloro-2-fluoro-3-methoxy-phenyl)pyridine-2-carboxylic acid (Compound A), each formulated as an SC (suspension concentrate), and various herbicidal components alone and in combination.
# Other herbicidal components were applied on an acid equivalent (ae) or active ingredient (ai) basis and included acetyl coA carboxylase (ACCase)-inhibiting herbicides (cyclohexanedione and aryloxyphenoxypropionate chemical classes) cyhalofop-butyl formulated as Clincher® SF (285 gr ai/L EC), diclofop-methyl formulated as Hoelon® 3EC, fenoxaprop-p-ethyl+isoxadifen-ethyl formulated as RiceStar® HT (0.58 lb./gal EC), fenoxaprop-p-ethyl+mefenpyr diethyl formulated as Puma® IEC, metamifop formulated as Metamifop EC, haloxyfop-methyl formulated as Gallant Super®, fluazifop-p-butyl formulated as Fusilade® DX, quizalofop-p-ethyl formulated as Assure® II, profoxydim formulated as Aura® 20EC, clethodim applied as Intensity®, sethoxydim formulated as Poast®, and tralkoxydim formulated as Achieve®.
# (§1) Treatment requirements were calculated based upon the rates being tested, the concentration of active ingredient or acid equivalent in the formulation, and a 12 mL application volume at a rate of 187 L/ha.
# (§2) For treatments comprised of formulated compounds, measured amounts of compounds were placed individually in 25 mL glass vials and diluted in a volume of 1.25% (v/v) Agri-Dex® crop oil concentrated to obtain 12× stock solutions. […] Application solutions were prepared by adding an appropriate amount of each stock solution (e.g., 1 mL) and diluted to the appropriate final concentrations with the addition of 10 mL of an aqueous mixture of 1.25% (v/v) crop oil concentrate so that the final spray solutions contained 1.25+/−0.05% (v/v) crop oil concentrate.
# (§3) All stock solutions and applications solutions were visually inspected for compound compatibility prior to application. Spray solutions were applied to the plant material with an overhead Mandel track sprayer equipped with a 8002E nozzles calibrated to deliver 187 L/ha over an application area of 0.503 m^2 at a spray height of 18 to 20 inches (46 to 50 cm) above average plant canopy height. Control plants were sprayed in the same manner with the solvent blank.
# The treated plants and control plants were placed in a greenhouse as described above and watered by sub-irrigation to prevent wash-off of the test compounds. After approximately 3 weeks, the condition of the test plants as compared with that of the untreated plants was determined visually and scored on a scale of 0 to 100 percent where 0 corresponds to no injury or growth inhibition and 100 corresponds to complete kill. […]
# [2] = test system: CYPRO; test: Example II in-water applied, greenhouse, transplanted paddy rice weeds; type: in vivo, Cyperus rotundus L.
# Experimental: (§4) Weed seeds or nutlets of the desired test plant species were planted in puddled soil (mud) prepared by mixing a shredded, non-sterilized mineral soil (50.5 percent silt, 25.5 percent clay, and 24 percent sand, with a pH of about 7.6 and an organic matter content of about 2.9 percent) and water at a 1:1 volumetric ratio. The prepared mud was dispensed in 365 mL aliquots into 16-ounce (oz.) non-perforated plastic pots with a surface area of 86.59 square centimeters (cm^2) leaving a headspace of 3 centimeters (cm) in each pot. Mud was allowed to dry overnight prior to planting or transplanting. Rice seeds were planted in Sun Gro MetroMix® 306 planting mixture, which typically has a pH of 6.0 to 6.8 and an organic matter content of about 30 percent, in plastic plug trays. Seedlings at the second or third leaf stage of growth were transplanted into 860 mL of mud contained in 32-oz. non-perforated plastic pots with a surface area of 86.59 cm^2 4 days prior to herbicide application. The paddy was created by filling the headspace of the pots with 2.5 to 3 cm of water. […] The plants were grown for 4-22 days in a greenhouse with an approximate 14 hr. photoperiod which was maintained at about 29° C. during the day and 26° C. during the night. Nutrients were added as Osmocote® (19:6:12, N:P:K+minor nutrients) at 2 g per 16-oz. pot and 4 g per 32-oz. pot. Water was added on a regular basis to maintain the paddy flood, and supplemental lighting was provided with overhead metal halide 1000-Watt lamps as necessary. The plants were employed for testing when they reached the first through fourth true leaf stage.
# (§5) Treatments consisted of the acid or esters of 4-amino-3-chloro-5-fluoro-6-(4-chloro-2-fluoro-3-methoxy-phenyl)pyridine-2-carboxylic acid (compound A) each formulated as an SC (suspension concentrate) and various herbicidal components alone and in combination.
# (§6) For formulated compounds, a measured amount was placed in an individual 100 or 200 mL glass vial and was dissolved in a volume of 1.25% (v/v) Agri-Dex® crop oil concentrate to obtain application solutions.
# (§7) Applications were made by injecting with a pipetter appropriate amounts of the application solutions, individually and sequentially, into the aqueous layer of the paddy. Control plants were treated in the same manner with the solvent blank. Applications were made so that all treated plant material received the same concentrations of acetone and crop oil concentrate.
# (§8) The treated plants and control plants were placed in a greenhouse as described above and water was added as needed to maintain a paddy flood. After approximately 3 weeks the condition of the test plants as compared with that of the untreated plants was determined visually and scored on a scale of 0 to 100 percent where 0 corresponds to no injury or growth inhibition and 100 corresponds to complete kill.
# (§9) Colby's equation was used to determine the herbicidal effects expected from the mixtures (Colby, S. R. 1967. Calculation of the synergistic and antagonistic response of herbicide combinations. Weeds 15:20-22.).
# (§10) The following equation was used to calculate the expected activity of mixtures containing two active ingredients, A and B: Expected=A+B−(A×B/100)
# [3] = test system: ECHOR; test: as above; type: in vivo, Echinochloa oryzoides (Ard.) Fritsch; details: in-water
# Experimental: as §4, §5, §6, §7, §8, §9, §10
# [4] = test system: ECHCG; test: Example V (second) postemergence foliar-applied ternary mixtures, greenhouse, direct seeded rice weeds; type: in vivo, Echinochloa crus-galli (L.) Beauv.
# Description: (§11) Seeds or nutlets of the desired test plant species were planted in a soil matrix prepared by mixing a sandy loam or loam soil (e.g., 32 percent silt, 23 percent clay, and 45 percent sand, with a pH of about 6.5 and an organic matter content of about 1.9 percent) and calcareous grit in an 80 to 20 ratio. The soil matrix was contained in plastic pots with a volume of 1 quart and a surface area of 83.6 square centimeters (cm^2). When required to ensure good germination and healthy plants, a fungicide treatment and/or other chemical or physical treatment was applied. The plants were grown for 8-22 days in a greenhouse with an approximate 14 hr. photoperiod which was maintained at about 29° C. during the day and 26° C. during the night. Nutrients (Peters Excel® 15-5-15 5-Ca 2-Mg and iron chelate) were applied in the irrigation solution as needed and water was added on a regular basis. Supplemental lighting was provided with overhead metal halide 1000-Watt lamps as necessary. The plants were employed for testing when they reached the first through fourth true leaf stage.
# (§12) Treatments consisted of the benzyl ester of 4-amino-3-chloro-5-fluoro-6-(4-chloro-2-fluoro-3-methoxy-phenyl)pyridine-2-carboxylic acid (Compound A), formulated as an SC (suspension concentrate), an ACCase inhibitor, and a third herbicidal component, each applied alone and in ternary combination. Forms of compound A were applied on an acid equivalent basis.
# The ACCase inhibitor component was applied on an active ingredient basis and included cyhalofop-R-butyl formulated as Clincher® SF, fenoxaprop-p-ethyl formulated as RiceStar® HT, and profoxydim formulated as Aura® 20EC. Other herbicidal components were applied on an active ingredient or acid equivalent basis depending on the compound and included penoxsulam formulated as Grasp® SC, bentazon sodium formulated as Basagran®, triclopyr […] (TEA) salt formulated as Grandstand® R, bispyribac sodium formulated as Regiment® 80WP, imazamox ammonium formulated as Beyond®, benzobicyclon, quinclorac formulated as Facet® 75DF, glyphosate dimethylammonium (DMA) salt formulated as Durango® DMA, glufosinate ammonium formulated as Ignite® 280, fentrazamide formulated as an emulsifiable concentrate (EC), propyrisulfuron formulated as Zeta One®, and indanofan (technical grade material).
# as §1
# as §2, with “concentrate” for “concentrated”, “9” for “10”, “1.25%” for “1.25+/−0.05%”
# (§13) As required, additional water and/or 97:3 v/v acetone/DMSO was added to individual application solutions so that the final acetone and DMSO concentrations of the application solutions being compared were 8.1% and 0.25%, respectively.
# as §3, with “18” for “18 to 20”, “(46” for “(46 to 50”
# The treated plants and control plants were placed in a greenhouse as described above and watered by sub-irrigation to prevent wash-off of the test compounds. […]
# [5] = test system: ECHOR; test: as above; type: in vivo, Echinochloa oryzoides (Ard.) Fritsch
# Experimental: as §11, with “When required to ensure good germination and healthy plants, a fungicide treatment and/or other chemical or physical treatment was applied.” left out
# as §12
# as §2, with “concentrate” for “concentrated”, “9” for “10”, “1.25%” for “1.25+/−0.05%”
# as §13
# as §3, with “18” for “18 to 20”, “(46” for “(46 to 50”
# The treated plants and control plants were placed in a greenhouse as described above and watered by sub-irrigation to prevent wash-off of the test compounds. After approximately 3 weeks, the condition of the test plants as compared with that of the untreated plants was determined visually and scored on a scale of 0 to 100 percent where 0 corresponds to no injury or growth inhibition and 100 corresponds to complete kill.
# as §9
# The following equation was used to calculate the expected activity of mixtures containing three active ingredients, A, B, and C: Expected=A+B+C−((A×B+A×C+B×C)/100)+(A×B×C/10000)
smiles,measurement,setting,value
"CCCCOC(=O)[C@@H](C)Oc1ccc(Oc2ccc(C(F)(F)F)cn2)cc1 [Fluazifop-p-butyl, butyl(2R)-2-[4-[[5-(trifluoromethyl)-2-pyridinyl]oxy]phenoxy]propanoate, reference compound]",Visual Weed Control (%) - 19 DAA IPOHE Obs,[1]; 45 gae/ha,0%
same,Visual Weed Control (%) - 19 DAA IPOHE Obs,[1]; 90 gae/ha,0%
same,Visual Weed Control (%) - 19 DAA IPOHE Obs,[1]; 180 gae/ha,0%
same,Visual Weed Control (%) - 21 DAA CYPRO Obs,[2]; Fluazifop-P-butyl 90 gae/ha,0%
same,Visual Weed Control (%) - 21 DAA CYPRO Obs,[2]; Fluazifop-P-butyl 180 gae/ha,0%
same,Visual Weed Control (%) - 21 DAA ECHOR Obs,[3]; 45 gai/ha,0%
same,Visual Weed Control (%) - 21 DAA ECHOR Obs,[3]; Fluazifop-P-butyl 90 gae/ha,25%
CCN(C(=O)n1nnn(-c2ccccc2Cl)c1=O)C1CCCCC1 [Fentrazamide],Visual Weed Control (%) - 22 DAA ECHCG Obs,[4]; 33.75 gai/ha,0%
same,Visual Weed Control (%) - 22 DAA ECHCG Obs,[4]; 67.5 gai/ha,0%
same,Visual Weed Control (%)- 22 DAA ECHOR Obs,[5]; 33.75 gai/ha,3%
same,Visual Weed Control (%)- 22 DAA ECHOR Obs,[5]; 67.5 gai/ha,0%
CCCc1ccc2nc(Cl)c(S(=O)(=O)NC(=O)Nc3nc(OC)cc(OC)n3)n2n1 [Propyrisulfuron],Visual Weed Control (%) - 22 DAA ECHOR Obs,[5]; 22.5 gai/ha,55%
